# According to patent US7862798B2, “Vitamin-targeted imaging agents” (Endocyte, Inc., priority 2002, dated 2011):
# Where “and” joins values, the source holds several entries; their conditions need not be identical. Equal entries are not always repeated.
# Columns and labels:
# [1] = target: T1, folate receptor (FR) on KB cells (Homo sapiens, UniProt P15328); assay: Concentration-dependent cell uptake (Scatchard analysis); format: binding; conditions: 2 hours at 37° C.
# T1 construct: FR-positive KB cells were gently trypsinized; endogenous in cells; host or cells: KB cells
# T1 sequence (P15328 25-234): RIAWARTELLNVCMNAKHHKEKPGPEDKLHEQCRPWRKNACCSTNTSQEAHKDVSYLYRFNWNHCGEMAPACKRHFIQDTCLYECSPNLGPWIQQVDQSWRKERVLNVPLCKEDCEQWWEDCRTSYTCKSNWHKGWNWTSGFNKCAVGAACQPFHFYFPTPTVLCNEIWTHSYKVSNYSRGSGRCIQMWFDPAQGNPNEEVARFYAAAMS
# Procedure: KB cells were seeded in 12-well Falcon plates and allowed to form sub-confluent monolayers overnight. Following one rinse with 1 mL of fresh FERPMI/HIFCS, each well received 1 mL of FFRPMI/HIFCS containing increasing concentrations of ^99mTc-EC20. Cells were incubated for 2 hours at 37° C. and then rinsed four times with 1 mL of ice-cold PBS, pH 7.4. The monolayers were dissolved in 0.5 mL of PBS, pH 7.4 containing 1% sodium dodecyl sulfate for 15 min at room temperature and then counted for radioactivity using a Packard gamma counter. Protein content was determined as described above, and final tabulated values were expressed in terms of molecules of EC20 per cell.
# The particular KB cells used were determined to bind a maximum of four million molecules of the folate radiopharmaceutical per cell.
# This HPLC-purified radiolabeled material (Peak B material) was collected and then added to cultured KB cells.
# [2] = system: FR-positive M109 tumors; assay: Tissue distribution, subcutaneous M109 tumors (Example 11)
# Procedure: The ability of ^99mTc-EC20 to target tumors in vivo was assessed using a FR-positive M109 model.
# Four to five week-old mice (Balb/c strain) were purchased from Harlan Sprague Dawley, Inc. (Indianapolis, Ind.) and were maintained on a folate-free diet for a total of three weeks prior to the experiment. Syngeneic, FR-positive M109 tumor cells (1×10^6 per animal) were inoculated in the subcutis of the right axilla two weeks prior to the experiment.
# Animals received an approximate 40 μmol/kg i.v. dose of test article in 100 μL volume via a lateral tail vein during brief diethyl ether anesthesia. Four hours post-injection, animals were sacrificed by CO2 asphyxiation, and dissected. Selected tissues were removed, weighed, and counted to determine ^99mTc distribution. CPM values were decay-corrected, and results were tabulated as % injected dose per gram of wet weight tissue.
# [3] = Serum protein binding (ultrafiltration), rat serum; format: in vitro ADME; conditions: room temperature, ultrafiltration 30,000 NMWL
# Procedure: Fresh rat serum, and commercial male human serum (type AB donors, Sigma Chemical Co.) were used to evaluate in vitro binding of ^99mTc˜EC20 to serum proteins. One minute after ^99mTc-EC20 was mixed with 1 mL of serum at room temperature, 0.3 mL of the serum solution was transferred to a clean Amicon Centrifree® ultrafiltration device (30,000 NMWL) in triplicate. Within one minute of loading the centrifuge with the serum solution, the device was spun at 1000×g for 20 minutes at 20° C. 50 μL samples of the original solution, and of the filtrate from each device, was transferred to a clean tube and counted in an automatic gamma counter. A control solution of ^99mTc˜EC20 mixed with 1 mL of normal saline was ultrafiltered in an identical fashion. The percentage of free ^99mTc was calculated for each of the three samples.
# [4] = Urinary excretion and metabolism (HPLC speciation of urine); format: in vivo, Balb/c mice
# Procedure: The urinary HPLC speciation profile of ^99mTc-EC20 was obtained using Balb/c mice. Mice (˜20 g each) were injected with 1 mCi (6.7 nmol) of ^99mTc-EC20 via a lateral tail vein. Following a 1, 4, or 6 hour time period, groups of two mice were euthanized by CO2 asphyxiation and urine was collected. After filtration through a GV13 Millex filter, the radiochemical speciation was assessed using an HPLC system equipped with a Nova-Pak C18 3.9×150 mm column and a radiochemical detector. The system was isocratically eluted with 20% methanol containing 0.1% TFA at a flow rate of 1 mL/minute.
# [5] = system: FR-positive KB cells; assay: Time-dependent cell uptake; format: cell-based, human; parameters: time to half-maximal saturation point: dose or concentration left out as unconfirmed
# Procedure: KB cells were seeded in 12-well Falcon plates and allowed to form sub-confluent monolayers overnight. Following one rinse with 1 mL of fresh FFRPMI/HIFCS, each well received 1 mL of FFRPMI/HIFCS containing 10 nM ^99mTc-EC20. Cells were incubated for predetermined times at 37° C. and then rinsed four times with 1 mL of ice-cold PBS, pH 7.4. The cell monolayers were dissolved in 0.5 mL of PBS, pH 7.4 containing 1% sodium dodecyl sulfate for 15 min at room temperature and then counted for radioactivity using a Packard gamma counter. The protein in each sample was quantitated using a BioRad DC Protein Assay kit, and cellular protein values were converted to cell number using the conversion factor of 2.23×10^−7 mg protein per cell. Final tabulated values were expressed in terms of molecules of EC20 per cell.
# The kinetics of ^99mTc-EC20 uptake into FR-positive KB cells was quantitatively measured using this protocol.
# [6] = system: FR-positive M109 and FR-negative 4T1 tumors; assay: Tissue distribution, M109 and 4T1 tumor models (Example 15); format: in vivo, Balb/c mice; conditions: four hours post i.v. injection
# Procedure: The protocols used in this example are similar to those described in Example 11.
# Syngeneic, FR-positive M109 tumor cells (2×10^6 Po per animal) or FR-negative 4T1 cells (5×10^5 Po per animal) were inoculated subcutaneously in 100 μl of folate-free RPMI-1640 containing 1% syngeneic mouse serum.
# Sixteen days after tumor cell inoculation, the animals were injected intravenously with 500 or 1800 nmoles/kg of EC20 for M109 tumor-bearing animals and 500 nmoles/kg of EC20 for 4T1 tumor-bearing animals (3 mice per dose group). All injections were in 100 μl volumes. […] Selected tissues (heart, lungs, liver, spleen, kidney, intestines, stomach, muscle, and tumor) were removed, weighed, and counted in an automatic gamma counter to determine ^99mTc distribution. Uptake of the radiopharmaceutical in terms of percentage injected dose of wet weight tissue (% ID/g) was calculated by reference to standards prepared from dilutions of the injected preparation.
# [7] = 4 hr post i.v., + Folic acid (100 equivalents)
# [8] = 4 hr post intravenous injection
smiles,measurement,setting,value
[NH-][C@@H](CNC(=O)CC[C@@H](NC(=O)c1ccc(NCc2cnc3nc(N)[nH]c(=O)c3n2)cc1)C(=O)O)C(=O)[N-][C@@H](CC(=O)O)C(=O)[N-][C@@H](C[S-])C(=O)O.[O]=[Tc+4] [^99mTc-EC20],maximum molecules bound per cell,[1],four million
same,Kd,[1]; read-out: KD of binding (Scatchard analysis),3.2 nM
same,Blood,[2]; [7],0.09 ± 0.02 % Injected Dose per Gram Tissue
same,Heart,[2]; [7],0.08 ± 0.01 % Injected Dose per Gram Tissue
same,Intestine,[2]; [7],2.93 ± 1.49 % Injected Dose per Gram Tissue
same,Kidney,[2]; [7],5.64 ± 2.13 % Injected Dose per Gram Tissue
same,Liver,[2]; [7],1.15 ± 0.22 % Injected Dose per Gram Tissue
same,Lung,[2]; [7],0.31 ± 0.26 % Injected Dose per Gram Tissue
same,Muscle,[2]; [7],0.06 ± 0.02 % Injected Dose per Gram Tissue
same,Spleen,[2]; [7],0.38 ± 0.33 % Injected Dose per Gram Tissue
same,Stomach,[2]; [7],3.35 ± 5.19 % Injected Dose per Gram Tissue
same,Tumor,[2]; [7],0.45 ± 0.18 % Injected Dose per Gram Tissue
same,Tumor/Blood,[2]; [7],4.70 ± 1.30
same,Blood,[2]; [8],0.34 ± 0.03 % Injected Dose per Gram Tissue
same,Heart,[2]; [8],1.57 ± 0.26 % Injected Dose per Gram Tissue
same,Intestine,[2]; [8],2.56 ± 0.61 % Injected Dose per Gram Tissue
same,Kidney,[2]; [8],138 ± 12.4 % Injected Dose per Gram Tissue
same,Liver,[2]; [8],3.56 ± 0.25 % Injected Dose per Gram Tissue
same,Lung,[2]; [8],2.22 ± 0.63 % Injected Dose per Gram Tissue
same,Muscle,[2]; [8],0.67 ± 0.20 % Injected Dose per Gram Tissue
same,Spleen,[2]; [8],0.95 ± 0.15 % Injected Dose per Gram Tissue
same,Stomach,[2]; [8],1.45 ± 0.55 % Injected Dose per Gram Tissue
same,associated with the >30 kDa serum protein fraction,[3],69%
same,form excreted into the urine,"[4]; Balb/c mice, i.v.",predominately excreted into the urine in an unmodified form
same,proportion of parent drug among radioactive species recovered in urine,[4]; throughout four hours post-injection,approximately 90%
same,"Area Percent, Sum C and D (intact 99mTc-EC20)","[4]; urine samples, 1 hr, two mice",89.2 Area Percent and 91.1 Area Percent
same,"Area Percent, peak A (pertechnetate)","[4]; urine samples, 1 hr, two mice",8.3 Area Percent and 6.3 Area Percent
same,"Area Percent, peak B (unknown)","[4]; urine samples, 1 hr, two mice",2.5 Area Percent and 2.6 Area Percent
same,"Area Percent, peak C (isomer 1)","[4]; urine samples, 1 hr, two mice",20.4 Area Percent and 18.1 Area Percent
same,"Area Percent, peak D (isomer 2)","[4]; urine samples, 1 hr, two mice",68.8 Area Percent and 73 Area Percent
same,"Area Percent, Sum C and D (intact 99mTc-EC20)","[4]; urine samples, 4 hr, two mice",85.2 Area Percent and 89.8 Area Percent
same,"Area Percent, peak A (pertechnetate)","[4]; urine samples, 4 hr, two mice",9.4 Area Percent and 10.2 Area Percent
same,"Area Percent, peak C (isomer 1)","[4]; urine samples, 4 hr, two mice",7.3 Area Percent and 11.1 Area Percent
same,"Area Percent, peak D (isomer 2)","[4]; urine samples, 4 hr, two mice",77.9 Area Percent and 78.7 Area Percent
same,time to half-maximal cell association,"[5]; 10 nM, 37° C.",9 min
same,molecules of EC20 cell-associated at steady state,"[5]; 10 nM, 37° C., KB cells",approximately 3.2 million
same,time to steady-state uptake,"[5]; 10 nM, 37° C., KB cells",within two hours
same,time to half-maximal saturation point,[5]; 10-fold higher concentration,37 s
same,uptake in FR-negative 4T1 tumors lower than in FR-positive M109 tumors,[6],7.6 fold
same,"uptake in normal tissues, except kidney",[6],low
